Values of other authors in patent publication US20240173272A1 (LUPIN ATLANTIS HOLDINGS SA, priority 2021, published 2024).

Experiments:
[1] = oral administration
[2] = weak base

## Cc1cccc(C)c1OCC(C)N (centres unmarked) [Mexiletine]
[1]
  bioavailability: about 90%
[2]
  pKa: about 9.1
